Experimental data: paper PMC12136037, “Type II kinase inhibitors that target Parkinson’s disease–associated LRRK2” (Science Advances, 2025)
Read-outs that look alike come from different tables or passages of the source.

Experiments:
Assay in all cases: DSF 100 kinase selectivity screen;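 further: compound tested at 20 µM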
Format in all cases: binding
[1] = target: T1, ~100 representative kinases (Homo sapiens, UniProt P15735); settings: protein PHKG2; average of three replicates
T1 construct: Recombinant protein kinase domains with a concentration of 2 μM
T1 sequence (P15735 1-406): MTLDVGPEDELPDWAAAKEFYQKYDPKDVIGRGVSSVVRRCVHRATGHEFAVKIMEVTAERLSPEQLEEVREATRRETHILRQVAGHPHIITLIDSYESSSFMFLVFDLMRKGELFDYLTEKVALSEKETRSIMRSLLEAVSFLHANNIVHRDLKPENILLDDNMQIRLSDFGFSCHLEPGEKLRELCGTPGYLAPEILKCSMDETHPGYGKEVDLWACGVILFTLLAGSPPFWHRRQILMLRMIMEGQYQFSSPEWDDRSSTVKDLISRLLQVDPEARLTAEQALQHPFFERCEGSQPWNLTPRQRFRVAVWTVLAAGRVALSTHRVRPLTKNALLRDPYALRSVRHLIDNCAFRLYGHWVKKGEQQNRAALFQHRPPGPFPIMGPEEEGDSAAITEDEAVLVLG
Procedure, shortened: (§1)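 Each kinase domain, at 2 μM, is mixed with 20 μM test compound and SYPRO Orange in Hepes (20 mM, pH 7.5) with 500 mM NaCl. Temperature is then raised at 3°C/min and fluorescence-monitored unfolding yields the melting temperature change, ΔTm in degrees Celsius.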

[2] = target: T2, ~100 representative kinases (Homo sapiens, UniProt P49137); settings: protein MAPKAPK2; average of three replicates
T2 construct: Recombinant protein kinase domains with a concentration of 2 μM
T2 sequence (P49137 whole entry, the tested form may be a part): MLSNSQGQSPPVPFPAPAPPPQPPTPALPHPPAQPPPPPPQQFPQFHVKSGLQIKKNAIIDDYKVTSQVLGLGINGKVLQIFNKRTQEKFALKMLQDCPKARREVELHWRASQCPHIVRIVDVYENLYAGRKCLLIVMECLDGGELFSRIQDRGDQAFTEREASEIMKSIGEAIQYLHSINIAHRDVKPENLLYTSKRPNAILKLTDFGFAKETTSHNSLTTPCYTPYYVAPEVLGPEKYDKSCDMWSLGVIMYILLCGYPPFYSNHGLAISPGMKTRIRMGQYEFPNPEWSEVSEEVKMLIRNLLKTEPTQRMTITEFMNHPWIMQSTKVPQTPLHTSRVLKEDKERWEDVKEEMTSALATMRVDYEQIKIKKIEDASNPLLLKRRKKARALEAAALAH
Procedure, shortened: as §1

[3] = target: T3, ~100 representative kinases (Homo sapiens, UniProt O96017); settings: Protein CHEK2; average of three replicates
T3 construct: Recombinant protein kinase domains with a concentration of 2 μM
T3 sequence (O96017 whole entry, the tested form may be a part): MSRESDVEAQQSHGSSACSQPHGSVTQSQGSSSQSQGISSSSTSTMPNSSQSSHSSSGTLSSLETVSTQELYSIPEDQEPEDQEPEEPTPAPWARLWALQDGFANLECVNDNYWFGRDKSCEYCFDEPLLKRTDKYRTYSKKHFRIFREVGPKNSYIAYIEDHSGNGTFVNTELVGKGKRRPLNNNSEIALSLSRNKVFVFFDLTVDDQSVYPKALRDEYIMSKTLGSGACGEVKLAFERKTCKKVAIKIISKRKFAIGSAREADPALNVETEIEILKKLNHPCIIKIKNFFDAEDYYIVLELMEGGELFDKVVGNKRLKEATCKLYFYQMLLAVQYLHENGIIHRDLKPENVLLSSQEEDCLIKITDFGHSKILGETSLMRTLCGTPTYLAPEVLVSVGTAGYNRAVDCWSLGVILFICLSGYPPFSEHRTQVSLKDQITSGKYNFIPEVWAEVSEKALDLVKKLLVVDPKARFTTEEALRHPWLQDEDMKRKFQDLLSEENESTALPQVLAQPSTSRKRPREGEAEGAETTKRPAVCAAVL
Procedure, shortened: as §1

[4] = target: T4, ~100 representative kinases (Homo sapiens, UniProt Q9UEW8); settings: Protein STK39; DSF; average of three replicates
T4 construct: Recombinant protein kinase domains with a concentration of 2 μM
Procedure, shortened: as §1

[5] = target: T5, ~100 representative kinases (Homo sapiens, UniProt Q9Y243); settings: Protein AKT3; average of three replicates
T5 construct: Recombinant protein kinase domains with a concentration of 2 μM
T5 sequence (Q9Y243 whole entry, the tested form may be a part): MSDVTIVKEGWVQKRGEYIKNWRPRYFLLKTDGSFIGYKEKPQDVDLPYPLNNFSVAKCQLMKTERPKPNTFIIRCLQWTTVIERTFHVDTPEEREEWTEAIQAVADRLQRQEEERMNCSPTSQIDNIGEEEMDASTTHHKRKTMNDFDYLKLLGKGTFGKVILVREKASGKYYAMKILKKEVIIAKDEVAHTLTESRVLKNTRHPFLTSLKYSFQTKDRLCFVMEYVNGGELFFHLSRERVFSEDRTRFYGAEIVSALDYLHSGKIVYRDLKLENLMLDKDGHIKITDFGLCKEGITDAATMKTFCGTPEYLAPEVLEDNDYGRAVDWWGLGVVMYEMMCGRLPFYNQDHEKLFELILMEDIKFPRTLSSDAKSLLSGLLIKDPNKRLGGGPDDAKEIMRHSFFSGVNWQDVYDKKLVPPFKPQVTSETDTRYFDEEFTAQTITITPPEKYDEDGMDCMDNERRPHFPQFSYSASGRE
Procedure, shortened: as §1

[6] = target: T6, ~100 representative kinases (Homo sapiens, UniProt O75582); settings: Protein RPS6KA5; DSF; average of three replicates
T6 construct: Recombinant protein kinase domains with a concentration of 2 μM
T6 sequence (O75582 whole entry, the tested form may be a part): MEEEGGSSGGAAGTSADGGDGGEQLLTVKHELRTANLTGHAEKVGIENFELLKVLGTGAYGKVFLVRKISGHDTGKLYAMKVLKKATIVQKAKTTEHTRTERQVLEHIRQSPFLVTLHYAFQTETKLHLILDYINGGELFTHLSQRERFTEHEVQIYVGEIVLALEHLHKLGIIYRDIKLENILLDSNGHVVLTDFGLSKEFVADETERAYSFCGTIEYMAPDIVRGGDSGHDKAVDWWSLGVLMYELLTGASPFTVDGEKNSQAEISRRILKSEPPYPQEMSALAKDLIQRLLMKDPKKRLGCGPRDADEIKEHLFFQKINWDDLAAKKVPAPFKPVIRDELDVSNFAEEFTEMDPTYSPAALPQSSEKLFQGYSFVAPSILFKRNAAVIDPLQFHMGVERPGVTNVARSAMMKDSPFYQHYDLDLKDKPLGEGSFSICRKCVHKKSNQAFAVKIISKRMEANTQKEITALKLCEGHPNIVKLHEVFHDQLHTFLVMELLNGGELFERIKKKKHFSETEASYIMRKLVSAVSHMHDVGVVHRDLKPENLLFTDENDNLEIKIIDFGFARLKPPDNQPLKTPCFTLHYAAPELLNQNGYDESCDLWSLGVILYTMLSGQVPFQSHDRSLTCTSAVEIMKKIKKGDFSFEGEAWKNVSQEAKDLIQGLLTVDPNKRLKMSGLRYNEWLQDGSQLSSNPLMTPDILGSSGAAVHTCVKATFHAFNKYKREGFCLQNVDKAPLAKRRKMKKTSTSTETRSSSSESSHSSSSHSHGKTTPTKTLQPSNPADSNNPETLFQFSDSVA
Procedure, shortened: as §1

[7] = target: T7, ~100 representative kinases (Homo sapiens, UniProt Q13153); settings: protein PAK1; average of three replicates
T7 construct: Recombinant protein kinase domains with a concentration of 2 μM
T7 sequence (Q13153 whole entry, the tested form may be a part): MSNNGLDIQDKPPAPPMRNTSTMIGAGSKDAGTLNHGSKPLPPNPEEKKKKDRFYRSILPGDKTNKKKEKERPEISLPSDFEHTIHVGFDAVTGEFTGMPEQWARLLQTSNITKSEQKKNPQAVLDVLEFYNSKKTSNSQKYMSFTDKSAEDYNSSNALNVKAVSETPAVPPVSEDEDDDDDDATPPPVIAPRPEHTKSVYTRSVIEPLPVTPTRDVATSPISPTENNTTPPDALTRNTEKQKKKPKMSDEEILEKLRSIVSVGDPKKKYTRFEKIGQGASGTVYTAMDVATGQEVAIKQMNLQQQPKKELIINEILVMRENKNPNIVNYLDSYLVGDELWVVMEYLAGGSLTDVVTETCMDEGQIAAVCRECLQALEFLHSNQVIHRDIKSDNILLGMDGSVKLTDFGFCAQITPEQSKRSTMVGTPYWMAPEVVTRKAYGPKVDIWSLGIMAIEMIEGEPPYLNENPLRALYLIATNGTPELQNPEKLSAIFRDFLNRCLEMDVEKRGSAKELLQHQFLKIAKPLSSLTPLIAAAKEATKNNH
Procedure, shortened: as §1

[8] = target: T8, ~100 representative kinases (Homo sapiens, UniProt Q13873); settings: Protein BMPR2; average of three replicates
T8 construct: Recombinant protein kinase domains with a concentration of 2 μM
T8 sequence (Q13873 27-1038): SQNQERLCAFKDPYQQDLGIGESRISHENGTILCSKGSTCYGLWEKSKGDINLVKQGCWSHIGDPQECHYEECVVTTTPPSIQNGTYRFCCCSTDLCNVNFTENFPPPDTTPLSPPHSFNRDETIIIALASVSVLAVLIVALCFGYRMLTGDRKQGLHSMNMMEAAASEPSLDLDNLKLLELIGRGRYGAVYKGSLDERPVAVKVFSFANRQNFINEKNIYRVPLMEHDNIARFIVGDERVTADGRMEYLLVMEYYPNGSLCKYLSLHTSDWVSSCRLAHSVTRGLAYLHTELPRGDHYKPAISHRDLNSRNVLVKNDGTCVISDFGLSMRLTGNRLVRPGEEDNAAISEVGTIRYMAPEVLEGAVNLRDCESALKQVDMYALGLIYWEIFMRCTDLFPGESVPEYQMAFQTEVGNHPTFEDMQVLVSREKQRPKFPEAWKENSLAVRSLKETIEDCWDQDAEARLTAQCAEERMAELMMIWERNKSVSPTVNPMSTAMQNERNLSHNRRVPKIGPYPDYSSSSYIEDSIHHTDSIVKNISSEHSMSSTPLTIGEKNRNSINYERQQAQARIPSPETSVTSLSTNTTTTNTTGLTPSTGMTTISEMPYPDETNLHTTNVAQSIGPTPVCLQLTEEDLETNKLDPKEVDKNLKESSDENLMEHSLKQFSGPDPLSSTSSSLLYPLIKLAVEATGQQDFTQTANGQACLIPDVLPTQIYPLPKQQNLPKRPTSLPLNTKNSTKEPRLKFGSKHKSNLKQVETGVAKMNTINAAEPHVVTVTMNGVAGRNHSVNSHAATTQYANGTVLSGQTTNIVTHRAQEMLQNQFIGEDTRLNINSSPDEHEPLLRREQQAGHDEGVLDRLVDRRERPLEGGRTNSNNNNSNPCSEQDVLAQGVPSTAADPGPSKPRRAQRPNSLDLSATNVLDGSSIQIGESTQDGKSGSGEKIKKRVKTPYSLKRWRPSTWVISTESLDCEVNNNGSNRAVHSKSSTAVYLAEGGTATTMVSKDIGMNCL
Procedure, shortened: as §1

[9] = target: T9, ~100 representative kinases (Homo sapiens, UniProt P19784); settings: Protein CK2A2; average of three replicates
T9 construct: Recombinant protein kinase domains with a concentration of 2 μM
T9 sequence (P19784 whole entry, the tested form may be a part): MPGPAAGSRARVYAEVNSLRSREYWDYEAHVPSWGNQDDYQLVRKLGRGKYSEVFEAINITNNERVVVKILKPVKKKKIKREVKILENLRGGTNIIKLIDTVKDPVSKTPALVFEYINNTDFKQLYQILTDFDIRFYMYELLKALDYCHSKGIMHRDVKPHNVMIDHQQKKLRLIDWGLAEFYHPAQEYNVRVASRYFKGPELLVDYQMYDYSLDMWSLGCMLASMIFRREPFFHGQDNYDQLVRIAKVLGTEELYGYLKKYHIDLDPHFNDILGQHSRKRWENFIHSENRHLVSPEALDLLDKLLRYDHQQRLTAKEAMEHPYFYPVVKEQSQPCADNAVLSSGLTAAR
Procedure, shortened: as §1

[10] = target: T10, ~100 representative kinases (Homo sapiens, UniProt P52564); settings: protein MAP2K6; average of three replicates
T10 construct: Recombinant protein kinase domains with a concentration of 2 μM
T10 sequence (P52564 1-334): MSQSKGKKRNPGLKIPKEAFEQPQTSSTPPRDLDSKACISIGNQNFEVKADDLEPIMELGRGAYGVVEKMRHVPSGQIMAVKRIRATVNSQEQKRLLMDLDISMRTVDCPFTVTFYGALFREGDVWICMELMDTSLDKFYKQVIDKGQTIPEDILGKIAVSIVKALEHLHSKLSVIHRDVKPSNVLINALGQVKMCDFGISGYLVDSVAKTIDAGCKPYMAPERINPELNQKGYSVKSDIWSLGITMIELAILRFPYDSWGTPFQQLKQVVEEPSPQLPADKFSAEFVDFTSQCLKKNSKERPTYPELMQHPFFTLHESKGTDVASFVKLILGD
Procedure, shortened: as §1

[11] = target: T11, ~100 representative kinases (Homo sapiens, UniProt O95747); settings: protein OSR1; average of three replicates
T11 construct: Recombinant protein kinase domains with a concentration of 2 μM
T11 sequence (O95747 whole entry, the tested form may be a part): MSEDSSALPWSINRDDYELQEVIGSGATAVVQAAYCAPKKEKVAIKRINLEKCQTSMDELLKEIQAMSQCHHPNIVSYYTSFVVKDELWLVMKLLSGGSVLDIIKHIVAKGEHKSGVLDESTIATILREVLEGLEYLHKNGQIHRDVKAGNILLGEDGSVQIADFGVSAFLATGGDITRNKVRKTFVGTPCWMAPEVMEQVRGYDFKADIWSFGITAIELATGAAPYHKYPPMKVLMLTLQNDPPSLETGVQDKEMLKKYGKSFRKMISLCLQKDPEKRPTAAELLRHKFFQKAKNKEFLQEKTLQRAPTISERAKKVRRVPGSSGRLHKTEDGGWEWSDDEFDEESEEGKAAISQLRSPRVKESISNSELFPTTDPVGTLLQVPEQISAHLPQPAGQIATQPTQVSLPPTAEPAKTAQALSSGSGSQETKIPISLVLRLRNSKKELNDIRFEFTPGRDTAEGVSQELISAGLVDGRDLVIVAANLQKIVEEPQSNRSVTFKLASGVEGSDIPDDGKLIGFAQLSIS
Procedure, shortened: as §1

[12] = target: T12, ~100 representative kinases (Homo sapiens, UniProt P54756); settings: Protein EPHA5; average of three replicates
T12 construct: Recombinant protein kinase domains with a concentration of 2 μM
T12 sequence (P54756 25-1037): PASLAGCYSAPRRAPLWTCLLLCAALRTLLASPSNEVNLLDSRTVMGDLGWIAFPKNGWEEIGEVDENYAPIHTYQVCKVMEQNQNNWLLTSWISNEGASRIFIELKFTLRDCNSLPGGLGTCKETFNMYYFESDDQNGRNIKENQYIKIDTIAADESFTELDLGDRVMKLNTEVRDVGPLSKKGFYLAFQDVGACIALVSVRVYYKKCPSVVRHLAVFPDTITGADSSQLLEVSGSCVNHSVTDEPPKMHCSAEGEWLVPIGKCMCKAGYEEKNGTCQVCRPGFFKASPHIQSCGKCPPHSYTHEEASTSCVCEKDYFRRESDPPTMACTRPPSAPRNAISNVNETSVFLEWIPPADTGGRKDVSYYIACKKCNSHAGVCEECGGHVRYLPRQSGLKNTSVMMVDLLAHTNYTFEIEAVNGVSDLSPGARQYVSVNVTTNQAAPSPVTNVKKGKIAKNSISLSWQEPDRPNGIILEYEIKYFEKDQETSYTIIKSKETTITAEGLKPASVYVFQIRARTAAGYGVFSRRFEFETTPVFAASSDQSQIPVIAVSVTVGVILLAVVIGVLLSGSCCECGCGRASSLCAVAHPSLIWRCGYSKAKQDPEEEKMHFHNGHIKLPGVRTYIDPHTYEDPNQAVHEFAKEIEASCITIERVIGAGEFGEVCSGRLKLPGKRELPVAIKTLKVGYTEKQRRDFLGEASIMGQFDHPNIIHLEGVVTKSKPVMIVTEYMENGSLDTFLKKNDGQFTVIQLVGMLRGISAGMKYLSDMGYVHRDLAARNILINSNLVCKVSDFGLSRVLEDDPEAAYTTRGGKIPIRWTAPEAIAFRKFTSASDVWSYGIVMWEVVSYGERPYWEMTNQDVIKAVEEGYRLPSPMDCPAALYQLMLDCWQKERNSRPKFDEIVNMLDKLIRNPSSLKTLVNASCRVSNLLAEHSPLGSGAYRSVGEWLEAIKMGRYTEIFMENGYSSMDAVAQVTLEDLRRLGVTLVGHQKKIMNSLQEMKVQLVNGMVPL
Procedure, shortened: as §1

[13] = target: T13, ~100 representative kinases (Homo sapiens, UniProt Q16539)
T13 construct: Recombinant protein kinase domains with a concentration of 2 μM
T13 sequence (Q16539 whole entry, the tested form may be a part): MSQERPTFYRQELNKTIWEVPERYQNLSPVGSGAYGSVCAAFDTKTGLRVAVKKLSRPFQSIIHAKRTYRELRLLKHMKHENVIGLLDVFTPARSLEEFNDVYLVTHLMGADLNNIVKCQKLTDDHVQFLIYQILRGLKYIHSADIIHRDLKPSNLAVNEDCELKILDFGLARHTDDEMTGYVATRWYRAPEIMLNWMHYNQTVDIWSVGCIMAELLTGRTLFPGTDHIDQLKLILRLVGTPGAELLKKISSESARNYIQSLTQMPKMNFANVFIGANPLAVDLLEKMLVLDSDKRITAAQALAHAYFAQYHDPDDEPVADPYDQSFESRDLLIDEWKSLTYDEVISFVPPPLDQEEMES
Procedure, shortened: as §1

[14] = protein MAPK14, average of three replicates

Compound | dTm [1] | dTm [2] | dTm [3] | dTm [4] | dTm [5] | dTm [6] | dTm [7] | dTm [8] | dTm [9] | dTm [10] | dTm [11] | dTm [12] | dTm [13, 14] | dTm [13]
Cc1ccc(NC(=O)C2(C(=O)Nc3cccc(-c4c[nH]c5ncnc(N6CCOCC6)c45)c3)CC2)cc1 [Compound 14] | 0.65 K | -0.14 K | 3.90 K | 1.16 K | 0.32 K | 3.04 K | 2.44 K | 1.10 K | 5.87 K | 1.56 K | 1.54 K | 3.63 K | 0.29 K | –
O=C(Nc1cc(F)cc(Br)c1)C1(C(=O)Nc2cccc(-c3c[nH]c4ncnc(N5CCOCC5)c34)c2)CC1 [Compound 27] | 0.85 K | 0.07 K | 1.74 K | 0.00 K | 0.53 K | 0.67 K | 3.33 K | 0.25 K | 2.42 K | 2.66 K | 0.75 K | 0.40 K | 1.86 K | –
CNC(=O)c1cc(Oc2ccc(NC(=O)Nc3cc(C(C)(C)C)nn3-c3ccc4ncccc4c3)c(F)c2)ccn1 [Rebastinib, reference compound] | – | 0.44 K | 10.49 K | 1.13 K | -0.41 K | – | 1.98 K | -0.70 K | 1.06 K | 0.26 K | 1.75 K | 10.65 K | 20.84 K | –
Cc1ccc(C(=O)Nc2ccc(CN3CCN(C)CC3)c(C(F)(F)F)c2)cc1C#Cc1cnc2cccnn12 [Ponatinib, reference compound] | – | – | – | – | – | – | – | – | – | – | – | – | 12.52 K | –
Cc1ccc(C(=O)Nc2ccc(CN3CCN(C)CC3)c(C(F)(F)F)c2)cc1C#Cc1cnc2[nH]ncc2c1 [GZD-824, reference compound] | -0.11 K | -0.24 K | 5.84 K | 4.29 K | -0.88 K | 8.48 K | 4.19 K | – | 1.79 K | 0.96 K | 0.93 K | 14.58 K | – | 17.66 K
CN[C@@H]1C[C@H]2O[C@@](C)([C@@H]1OC)n1c3ccccc3c3c4c(c5c6ccccc6n2c5c31)C(=O)NC4 [Staurosporine] | – | – | – | 9.01 K | – | 13.79 K | 7.21 K | 3.02 K | – | 12.80 K | 8.41 K | – | – | –

Second part, led by results:

dTm [1] | dTm [2] | dTm [3] | dTm [4] | dTm [5] | dTm [6] | dTm [7] | dTm [8] | dTm [9] | dTm [10] | dTm [11] | dTm [12] | dTm [13, 14] | Compound | dTm [13]
0.93 K | 0.62 K | 1.23 K | 1.36 K | -0.13 K | 3.89 K | 1.55 K | 0.52 K | 2.54 K | 1.56 K | -0.63 K | 2.48 K | 1.61 K | Cc1cc(NC(=O)C2(C(=O)Nc3ccc(F)cc3)CC2)cc(-c2c[nH]c3ncnc(N4CCOCC4)c23)c1 [Compound 6] | –
-0.08 K | -0.05 K | 2.18 K | -0.15 K | 0.25 K | 0.21 K | 0.47 K | 0.48 K | 4.77 K | 0.82 K | 0.35 K | -0.30 K | -0.16 K | COc1ccc(NC(=O)C2(C(=O)Nc3cccc(-c4c[nH]c5ncnc(N6CCOCC6)c45)c3)CC2)cc1 [Compound 16] | –
-1.15 K | -0.50 K | 4.41 K | 1.34 K | -0.99 K | 7.61 K | 0.76 K | 0.19 K | -4.20 K | 0.45 K | -1.12 K | 0.15 K | 2.81 K | Cc1ccc(-n2nc(C(C)(C)C)cc2NC(=O)Nc2cccc(-c3c[nH]c4nc(Cl)nc(N5CCOCC5)c34)c2)cc1 [Compound 30] | –
3.23 K | 0.68 K | 5.52 K | 2.32 K | 0.45 K | 5.83 K | 3.82 K | 1.26 K | 9.70 K | 2.65 K | 2.33 K | 4.99 K | 1.55 K | O=C(Nc1ccc(Cl)cc1)C1(C(=O)Nc2cccc(-c3c[nH]c4ncnc(N5CCOCC5)c34)c2)CC1 [Compound 13] | –
1.11 K | -0.23 K | 0.72 K | 0.28 K | -0.31 K | 3.91 K | -0.11 K | 1.37 K | 2.65 K | 0.65 K | 0.21 K | -0.45 K | 0.16 K | CCNc1nc(Nc2cc(F)c(C(=O)N3CCOCC3)cc2OC)ncc1C(F)(F)F [GNE-7915] | –
-0.00698 K | -0.55 K | 2.66 K | 0.71 K | 0.50 K | -1.10 K | 2.36 K | 0.57 K | -0.63 K | 3.14 K | 0.69 K | 0.97 K | -0.59 K | Cc1cc(F)ccc1NC(=O)C1(C(=O)Nc2cccc(-c3c[nH]c4ncnc(N5CCOCC5)c34)c2)CC1 [Compound 24] | –
